One assay relates to MDA-MB-231. The experiment in a line: Antiproliferative activity against human MDA-MB-231 cells assessed as cell growth inhibition measured after 48 hrs by MTT assay. Type of assay: functional, cell-based. The conditions noted are these: MDA-MB-231, 48 h. Background: Tetrazolium assays rely on reduction of a dye to a coloured formazan, in cell work by metabolically active cells.

A further assay deals with MDA-MB-468. The experiment in a line: Antiproliferative activity against human MDA-MB-468 cells assessed as cell growth inhibition measured after 48 hrs by MTT assay. Format: functional, cell-based. The conditions noted are these: MDA-MB-468, 48 h.

Here are results for 16 compounds from ChEMBL document CHEMBL5113482, “Discovery of fused benzimidazole-imidazole autophagic flux inhibitors for treatment of triple-negative breast cancer” (Eur J Med Chem, 2022).

Bounds are passed on as bounds.

One may read the IC50 as the midpoint of a concentration-inhibition curve. Consider `O=C(NC1CCC1)c1[nH]cnc1-c1nc2ccccc2[nH]1`, for which, in the assay with MDA-MB-231, the IC50 was 33.8 µM. Turning to `O=C(NC1CCCC1)c1[nH]cnc1-c1nc2ccccc2[nH]1`, in the assay with MDA-MB-231, the IC50 is 20.6 µM. The same measure, in the same setting: in the case of `Cc1cc2nc(-c3nc[nH]c3C(=O)NC3CCCCC3)[nH]c2cc1C` it was 35.6 µM. Take `O=C(NCc1cccs1)c1[nH]cnc1-c1nc2ccccc2[nH]1`: the IC50 with MDA-MB-231 worked out at 35.1 µM. With `O=C(NCC1CC1)c1[nH]cnc1-c1nc2ccccc2[nH]1`, the IC50 in the assay on MDA-MB-231 was found to be 33.1 µM. Turning to `O=C(NC1CC1)c1[nH]cnc1-c1nc2ccccc2[nH]1`, the IC50 in the assay with MDA-MB-231 was determined as 35.2 µM.

Turning to `O=c1[nH]cc(F)c(=O)[nH]1` [FLUOROURACIL], the IC50 in the assay with MDA-MB-468 is greater than 200 µM; in the assay on MDA-MB-231, 26.7 µM. In the case of `Cn1c(-c2nc[nH]c2C(=O)NC2CCCCC2)nc2ccccc21`, in the assay with MDA-MB-231, the IC50 is 36.8 µM. As to `N#Cc1ccccc1NC(=O)c1[nH]cnc1-c1nc2ccccc2[nH]1`, the IC50 with MDA-MB-231 came out at 34.2 µM. Take `O=C(NC1CCCCCC1)c1[nH]cnc1-c1nc2ccccc2[nH]1`: the IC50 with MDA-MB-231 was greater than 40 µM. With `O=C(NCc1ccco1)c1[nH]cnc1-c1nc2ccccc2[nH]1`, the IC50 with MDA-MB-231 worked out at 22.2 µM. As to `O=C(Nc1cccc2ccccc12)c1[nH]cnc1-c1nc2ccccc2[nH]1`, the IC50 with MDA-MB-231 turned out to be 34.8 µM. For the compound `CC(C)(C)NC(=O)c1[nH]cnc1-c1nc2ccccc2[nH]1`, the IC50 in the assay with MDA-MB-231 is greater than 40 µM. In the case of `N#Cc1cccc(NC(=O)c2[nH]cnc2-c2nc3ccccc3[nH]2)c1`, the IC50 with MDA-MB-231 amounted to 24.9 µM. In the case of `Cn1cnc(-c2nc3ccccc3n2C)c1C(=O)NC1CCCCC1`, in the assay on MDA-MB-231, the IC50 was greater than 40 µM. For `O=C(c1[nH]cnc1-c1nc2ccccc2[nH]1)N1CCOCC1`, the IC50 in the assay on MDA-MB-231 was greater than 40 µM.
